Data published in US4826845A, “3(2H)-pyridazinones and pharmaceutical compositions thereof” (Richter Gedeon Vegyeszeti Gyar T.R., priority 1985, dated 1989).
Structures can show the parent of a compound that is named as a salt. Where two headings read alike, the source gives them in different places.

Columns and labels:
[1] = target: T1, potential-mediated calcium channel (Rattus norvegicus, UniProt P22002); assay: Calcium-antagonism on isolated portal vein: potential-mediated calcium channel; assay type: cell-based; conditions: rat portal vein, 80 millimoles KCl, 37° C.; read-out: Inhibition of the calcium channel, potential-mediated, IC50
T1 construct: from tissue; host or cells: isolated rat portal vein
T1 sequence (P22002 whole entry): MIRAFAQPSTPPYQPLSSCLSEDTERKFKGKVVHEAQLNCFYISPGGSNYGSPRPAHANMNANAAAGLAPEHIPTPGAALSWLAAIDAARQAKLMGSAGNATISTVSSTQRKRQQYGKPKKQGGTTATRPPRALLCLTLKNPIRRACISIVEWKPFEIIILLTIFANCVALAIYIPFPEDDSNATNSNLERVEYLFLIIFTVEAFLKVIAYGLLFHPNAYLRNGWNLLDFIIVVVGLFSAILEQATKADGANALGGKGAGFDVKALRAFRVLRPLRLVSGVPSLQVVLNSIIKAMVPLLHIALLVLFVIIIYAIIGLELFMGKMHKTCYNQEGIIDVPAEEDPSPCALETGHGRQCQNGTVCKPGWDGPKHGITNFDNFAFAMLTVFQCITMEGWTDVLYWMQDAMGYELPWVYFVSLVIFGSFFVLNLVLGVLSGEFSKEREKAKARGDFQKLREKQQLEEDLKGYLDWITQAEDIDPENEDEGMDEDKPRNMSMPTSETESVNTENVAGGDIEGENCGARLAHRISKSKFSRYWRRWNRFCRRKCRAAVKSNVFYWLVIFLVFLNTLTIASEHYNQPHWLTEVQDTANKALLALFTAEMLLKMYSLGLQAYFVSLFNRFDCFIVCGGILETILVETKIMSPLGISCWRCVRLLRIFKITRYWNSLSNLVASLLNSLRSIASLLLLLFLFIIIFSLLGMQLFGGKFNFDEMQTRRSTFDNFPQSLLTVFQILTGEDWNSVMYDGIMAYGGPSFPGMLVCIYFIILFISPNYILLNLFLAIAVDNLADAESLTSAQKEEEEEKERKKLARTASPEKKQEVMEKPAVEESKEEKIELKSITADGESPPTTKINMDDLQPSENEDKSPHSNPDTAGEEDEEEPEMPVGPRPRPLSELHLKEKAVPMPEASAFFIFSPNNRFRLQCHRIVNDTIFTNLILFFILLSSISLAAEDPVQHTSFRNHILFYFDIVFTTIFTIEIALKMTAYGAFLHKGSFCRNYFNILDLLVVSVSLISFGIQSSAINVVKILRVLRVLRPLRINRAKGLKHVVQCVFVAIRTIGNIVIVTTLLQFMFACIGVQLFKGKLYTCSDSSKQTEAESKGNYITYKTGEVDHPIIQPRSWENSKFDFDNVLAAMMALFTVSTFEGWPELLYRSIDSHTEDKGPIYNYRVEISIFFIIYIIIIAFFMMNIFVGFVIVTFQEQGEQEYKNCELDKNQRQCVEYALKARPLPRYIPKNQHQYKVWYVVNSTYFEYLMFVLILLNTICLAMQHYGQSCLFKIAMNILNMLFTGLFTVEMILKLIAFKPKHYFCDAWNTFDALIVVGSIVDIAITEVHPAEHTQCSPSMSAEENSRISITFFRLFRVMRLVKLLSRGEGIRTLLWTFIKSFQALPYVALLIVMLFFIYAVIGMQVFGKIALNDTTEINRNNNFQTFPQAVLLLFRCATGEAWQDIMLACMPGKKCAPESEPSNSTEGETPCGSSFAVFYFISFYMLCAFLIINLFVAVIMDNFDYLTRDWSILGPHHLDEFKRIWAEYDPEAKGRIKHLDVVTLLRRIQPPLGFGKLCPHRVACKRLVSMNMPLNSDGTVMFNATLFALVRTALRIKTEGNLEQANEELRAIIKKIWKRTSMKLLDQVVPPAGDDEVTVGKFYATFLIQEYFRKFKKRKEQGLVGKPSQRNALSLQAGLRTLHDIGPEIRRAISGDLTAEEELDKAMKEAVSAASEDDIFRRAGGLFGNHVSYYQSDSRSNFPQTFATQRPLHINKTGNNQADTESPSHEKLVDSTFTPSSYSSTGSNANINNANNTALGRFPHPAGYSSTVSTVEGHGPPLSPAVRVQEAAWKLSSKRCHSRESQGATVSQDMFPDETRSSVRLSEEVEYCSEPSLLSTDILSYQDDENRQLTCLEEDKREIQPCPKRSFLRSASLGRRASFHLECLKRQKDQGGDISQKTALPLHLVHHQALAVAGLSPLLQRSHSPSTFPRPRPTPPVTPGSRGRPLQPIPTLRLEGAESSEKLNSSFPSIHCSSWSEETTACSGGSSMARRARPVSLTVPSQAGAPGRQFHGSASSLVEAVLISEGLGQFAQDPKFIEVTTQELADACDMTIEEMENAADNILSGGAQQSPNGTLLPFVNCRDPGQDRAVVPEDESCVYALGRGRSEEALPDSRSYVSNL
T1 sequence (P54290 25-944 partner limits assumed): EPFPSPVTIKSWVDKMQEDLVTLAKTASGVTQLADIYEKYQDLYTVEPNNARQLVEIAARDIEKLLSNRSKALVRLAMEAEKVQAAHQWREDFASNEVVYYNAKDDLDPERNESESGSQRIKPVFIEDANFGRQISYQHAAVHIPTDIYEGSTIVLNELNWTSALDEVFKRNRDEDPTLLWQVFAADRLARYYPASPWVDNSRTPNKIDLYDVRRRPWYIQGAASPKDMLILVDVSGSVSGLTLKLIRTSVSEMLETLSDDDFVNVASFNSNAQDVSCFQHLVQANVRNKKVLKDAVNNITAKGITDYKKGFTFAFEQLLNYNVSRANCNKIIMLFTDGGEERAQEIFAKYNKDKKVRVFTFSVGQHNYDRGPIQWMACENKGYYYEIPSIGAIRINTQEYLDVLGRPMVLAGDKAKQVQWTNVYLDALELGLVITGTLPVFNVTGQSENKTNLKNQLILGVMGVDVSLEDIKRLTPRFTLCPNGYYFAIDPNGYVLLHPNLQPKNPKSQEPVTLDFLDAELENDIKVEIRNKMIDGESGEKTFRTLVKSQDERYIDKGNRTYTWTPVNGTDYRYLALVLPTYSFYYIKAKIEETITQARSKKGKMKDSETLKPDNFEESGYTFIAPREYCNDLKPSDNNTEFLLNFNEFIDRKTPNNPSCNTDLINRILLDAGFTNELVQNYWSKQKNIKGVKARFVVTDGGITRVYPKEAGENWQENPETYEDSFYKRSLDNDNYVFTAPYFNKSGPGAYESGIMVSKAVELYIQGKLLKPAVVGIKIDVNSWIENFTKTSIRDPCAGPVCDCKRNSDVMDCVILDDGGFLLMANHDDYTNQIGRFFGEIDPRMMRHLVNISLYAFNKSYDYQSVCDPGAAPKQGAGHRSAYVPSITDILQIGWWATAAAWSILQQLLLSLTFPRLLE
T1 sequence (P54290 945-1091 partner limits assumed): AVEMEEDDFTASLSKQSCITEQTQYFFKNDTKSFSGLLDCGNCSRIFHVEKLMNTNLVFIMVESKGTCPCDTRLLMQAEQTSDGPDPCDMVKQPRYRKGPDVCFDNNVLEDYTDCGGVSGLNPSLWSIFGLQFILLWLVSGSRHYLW
Method: The calcium-antagonism of the compounds of the invention was studied on an isolated vessel preparation based on the work of M. Fiol de Cuneo et al. [Arch. Int. Pharmacodyn.
Male CFY rats with a body-weight of 150 to 200 g were bled by decapitation and the portal vein was immediately prepared starting from the hepatic portal. The vessel was longitudinally incised, bound to a transducer registering the contractions and incubated under a tension of 1 g at 37° C. in a calcium-free Krebs-Ringer bicarbonate solution aerated with carbogen. After an equilibration lasting for 30 minutes, the functioning of the receptor-mediated and the K^+ -depolarisation-mediated calcium channels, respectively, were investigated.
For investigating the potential-mediated calcium channel, the vein placed in the calcium-free Krebs-Ringer solution was washed by adding and then by removing 80 millimoles of potassium chloride while maintaining the isotania until no contraction appeared on repeatedly adding potassium chloride.
All measurements were carried out at 37° C. while bubbling through carbogen.

[2] = test system: conscious SH rats; assay: Antihypertensive effect on conscious SH rats after acute oral treatment; assay type: in vivo, rat
Description: These experiments were accomplished on conscious spontaneously hypertensive (SH) and renally hypertensive rats.
The systolic blood pressure and heart rate of the animals were indirectly measured by using the tail-cuff method by means of a 5- channel automatized equipment.

[3] = Acute toxicity in rats; conditions: rat, in vivo
Description: Male and female CFY rats and mice were used.

[4] = test system: pre- and postsynaptic alpha receptors; assay: Action on the pre- and postsynaptic adrenergic alpha receptors on the stimulated mouse vas deferens; assay type: cell-based
Method: The method of Hughes et al. [Brit. J. Phamacol. 51, pp. 139-140P (1975)] was used. The preparations suspended in a modified Krebs solution at 31° C. were excited by the field stimulation method [rectangular paired impulses with 1 msec interval, supramaximal potential (70 to 75 V=8 to 9 V/cm) and 100 msec impulse interval, pairs repeated in each 10 sec]. After stimulation, norepinephrine (NE) was dropped into the organ bath and a dose-response curve was taken up. Thus, the effect of both the endogenous norepinephrine liberated by stimulation and the exogenous norepinephrine could be studied before and after adding the substance to be tested.

O=c1cccnn1CCCNCC1COc2ccccc2O1 (centres unmarked) [Example 3 (or 12), 2-[3-(benzo[1,4]dioxan-2-yl-methylamino)-1-propyl]-3(2H)-pyridazinone hydrochloride]
IC50 [1]: 0.5 µM | hypotension up to the 5th hour ([2]; SH rats, 6.25 mg/kg p.o., up to 5th hour): 16% | antihypertensive effect ([2]; SH rats, 6.25 mg/kg p.o., within one hour): 29% | dose dependence of level and duration of the antihypertensive effect (in words) ([2]; SH rats, 6.25, 12.5 or […] p.o.): increased by increasing the doses | heart rate alteration (in words) ([2]; SH rats, p.o.): no significant heart rate alteration | LD50 at 336 h ([3]; ip, female, i.p., read-out: LD50 i.p.): 97.8 mg/kg | LD50 at 336 h ([3]; ip, male, i.p., read-out: LD50 i.p.): 116 mg/kg | LD50 at 336 h ([3]; po, female, p.o., read-out: LD50 p.o.): 400 mg/kg | LD50 at 336 h ([3]; po, male, p.o., read-out: LD50 p.o.): 600 mg/kg | Inhibition of the stimulation ([4]; concentration 10^-7 mole): 0% | Inhibition of the stimulation ([4]; concentration 10^-8 mole): 0%
